According to ChEMBL document CHEMBL4138123, “Design, synthesis and biological evaluation of novel pyrazolochalcones as potential modulators of PI3K/Akt/mTOR pathway and inducers of apoptosis in breast cancer cells” (Eur J Med Chem, 2017):

Key:
Format in all cases: functional
U-251 = assay: Cytotoxicity against human U251 cells assessed as cell growth at 10 uM after 48 hrs by sulforhodamine B assay relative to control; conditions: U-251, 48 h, read-out: Activity
OVCAR-8 [1] = assay: Cytotoxicity against human OVCAR8 cells assessed as growth inhibition after 48 hrs by sulforhodamine B assay; conditions: OVCAR-8, 48 h
SNB-19 = assay: Cytotoxicity against human SNB19 cells assessed as cell growth at 100 uM after 48 hrs by sulforhodamine B assay relative to control; conditions: SNB-19, 48 h, read-out: Activity
HT-29 [2] = assay: Cytotoxicity against human HT-29 cells assessed as cell growth at 10 uM after 48 hrs by sulforhodamine B assay relative to control; conditions: HT-29, 48 h, read-out: Activity
COLO 205 [3] = assay: Cytotoxicity against human COLO205 cells assessed as cell growth at 100 uM after 48 hrs by sulforhodamine B assay relative to control; conditions: COLO 205, 48 h, read-out: Activity
HT-29 [4] = assay: Cytotoxicity against human HT-29 cells assessed as cell growth at 1 uM after 48 hrs by sulforhodamine B assay relative to control; conditions: HT-29, 48 h, read-out: Activity
SR = assay: Cytotoxicity against human SR cells assessed as cell growth at 100 uM after 48 hrs by sulforhodamine B assay relative to control; conditions: read-out: Activity
A498 = assay: Cytotoxicity against human A498 cells assessed as cell growth at 0.1 uM after 48 hrs by sulforhodamine B assay relative to control; conditions: A498, 48 h, read-out: Activity
OVCAR-8 [5] = assay: Cytotoxicity against human OVCAR8 cells assessed as cell growth at 1 uM after 48 hrs by sulforhodamine B assay relative to control; conditions: OVCAR-8, 48 h, read-out: Activity
RXF 393 [6] = assay: Cytotoxicity against human RXF393 cells assessed as cell growth at 0.1 uM after 48 hrs by sulforhodamine B assay relative to control; conditions: RXF 393, 48 h, read-out: Activity
K562 = assay: Cytotoxicity against human K562 cells assessed as cell growth at 0.01 uM after 48 hrs by sulforhodamine B assay relative to control; conditions: K562, 48 h, read-out: Activity
MDA-MB-231 = assay: Cytotoxicity against human MDA-MB-231 cells assessed as cell growth at 0.01 uM after 48 hrs by sulforhodamine B assay relative to control; conditions: MDA-MB-231, 48 h, read-out: Activity
Malme-3M = assay: Cytotoxicity against human MALME-3M cells assessed as growth inhibition after 48 hrs by sulforhodamine B assay
UO-31 [7] = assay: Cytotoxicity against human UO31 cells assessed as cell growth at 1 uM after 48 hrs by sulforhodamine B assay relative to control; conditions: UO-31, 48 h, read-out: Activity
SF-268 [8] = assay: Cytotoxicity against human SF268 cells assessed as cell growth at 0.1 uM after 48 hrs by sulforhodamine B assay relative to control; conditions: SF-268, 48 h, read-out: Activity
SK-OV-3 = assay: Cytotoxicity against human SKOV3 cells assessed as cell growth at 100 uM after 48 hrs by sulforhodamine B assay relative to control; conditions: SK-OV-3, 48 h, read-out: Activity
OVCAR-8 [9] = assay: Cytotoxicity against human OVCAR8 cells assessed as cell growth at 0.01 uM after 48 hrs by sulforhodamine B assay relative to control; conditions: OVCAR-8, 48 h, read-out: Activity
786-0 = assay: Cytotoxicity against human 786-0 cells assessed as growth inhibition after 48 hrs by sulforhodamine B assay; conditions: 786-0, 48 h
HT-29 [10] = assay: Cytotoxicity against human HT-29 cells assessed as cell growth at 0.1 uM after 48 hrs by sulforhodamine B assay relative to control; conditions: HT-29, 48 h, read-out: Activity
OVCAR-3 = assay: Cytotoxicity against human OVCAR3 cells assessed as cell growth at 10 uM after 48 hrs by sulforhodamine B assay relative to control; conditions: OVCAR-3, 48 h, read-out: Activity
MCF7 [11] = assay: Cytotoxicity against human MCF7 cells assessed as cell growth at 1 uM after 48 hrs by sulforhodamine B assay relative to control; conditions: MCF7, 48 h, read-out: Activity
MCF7 [12] = assay: Cytotoxicity against human MCF7 cells assessed as cell growth at 0.1 uM after 48 hrs by sulforhodamine B assay relative to control; conditions: MCF7, 48 h, read-out: Activity
HCT-116 [13] = assay: Cytotoxicity against human HCT116 cells assessed as cell growth at 1 uM after 48 hrs by sulforhodamine B assay relative to control; conditions: HCT-116, 48 h, read-out: Activity
HCT-116 [14] = assay: Cytotoxicity against human HCT116 cells assessed as growth inhibition after 48 hrs by sulforhodamine B assay; conditions: HCT-116, 48 h
COLO 205 [15] = assay: Cytotoxicity against human COLO205 cells assessed as cell growth at 1 uM after 48 hrs by sulforhodamine B assay relative to control; conditions: COLO 205, 48 h, read-out: Activity
OVCAR-5 [16] = assay: Cytotoxicity against human OVCAR5 cells assessed as cell growth at 0.01 uM after 48 hrs by sulforhodamine B assay relative to control; conditions: OVCAR-5, 48 h, read-out: Activity
SK-MEL-28 = assay: Cytotoxicity against human SK-MEL-28 cells assessed as cell growth at 0.1 uM after 48 hrs by sulforhodamine B assay relative to control; conditions: SK-MEL-28, 48 h, read-out: Activity
RXF 393 [17] = assay: Cytotoxicity against human RXF393 cells assessed as cell growth at 100 uM after 48 hrs by sulforhodamine B assay relative to control; conditions: RXF 393, 48 h, read-out: Activity
SF-268 [18] = assay: Cytotoxicity against human SF268 cells assessed as cell growth at 0.01 uM after 48 hrs by sulforhodamine B assay relative to control; conditions: SF-268, 48 h, read-out: Activity
UO-31 [19] = assay: Cytotoxicity against human UO31 cells assessed as cell growth at 0.01 uM after 48 hrs by sulforhodamine B assay relative to control; conditions: UO-31, 48 h, read-out: Activity
OVCAR-5 [20] = assay: Cytotoxicity against human OVCAR5 cells assessed as growth inhibition after 48 hrs by sulforhodamine B assay; conditions: OVCAR-5, 48 h
OVCAR-4 = assay: Cytotoxicity against human OVCAR4 cells assessed as growth inhibition after 48 hrs by sulforhodamine B assay; conditions: OVCAR-4, 48 h
NCI-H322M = assay: Cytotoxicity against human NCI-H322M cells assessed as growth inhibition after 48 hrs by sulforhodamine B assay; conditions: for CC50: read-out: LC50 (the source's name)
SF-539 = assay: Cytotoxicity against human SF539 cells assessed as cell growth at 100 uM after 48 hrs by sulforhodamine B assay relative to control; conditions: SF-539, 48 h, read-out: Activity
UACC-257 = assay: Cytotoxicity against human UACC257 cells assessed as cell growth at 100 uM after 48 hrs by sulforhodamine B assay relative to control; conditions: UACC-257, 48 h, read-out: Activity
SW-620 = assay: Cytotoxicity against human SW620 cells assessed as cell growth at 0.01 uM after 48 hrs by sulforhodamine B assay relative to control; conditions: SW-620, 48 h, read-out: Activity

`COc1cc(C(=O)/C=C/c2cc(-c3cc(OC)c(OC)c(OC)c3)n[nH]2)cc(OC)c1OC` showed a growth at 10 µM (U-251) of -94%, an LC50 (OVCAR-8 [1]) of 6.81 µM and a TGI (OVCAR-8 [1]) of 3.28 µM. The growth at 100 µM (SNB-19) was -98%, the growth at 10 µM (HT-29 [2]) was -86% and the growth at 100 µM (COLO 205 [3]) was -100%. It also gave a growth at 1 µM (HT-29 [4]) of 96%, a growth at 100 µM (SR) of 7% and a growth at 0.1 µM (A498) of 90%. It also gave a growth at 1 µM (OVCAR-8 [5]) of 81%, a growth at 0.1 µM (RXF 393 [6]) of 88% and a growth at 0.01 µM (K562) of 99%. For the same compound, the growth at 0.01 µM (MDA-MB-231) was 110%, the LC50 (Malme-3M) was 8.99 µM and the TGI (Malme-3M) was 4.09 µM. For the same compound, the growth at 1 µM (UO-31 [7]) was 62%, the growth at 0.1 µM (SF-268 [8]) was 99% and the growth at 100 µM (SK-OV-3) was -100%. The growth at 0.01 µM (OVCAR-8 [9]) was 100%, the LC50 (786-0) was 6.76 µM and the TGI (786-0) was 3.25 µM. It also gave a growth at 0.1 µM (HT-29 [10]) of 102%, a growth at 10 µM (OVCAR-3) of -96% and a growth at 1 µM (MCF7 [11]) of 40%. For the same compound, the growth at 0.1 µM (MCF7 [12]) was 95%, the growth at 1 µM (HCT-116 [13]) was 70% and the LC50 (HCT-116 [14]) was 5.12 µM. It also gave a TGI (HCT-116 [14]) of 2.59 µM, a growth at 1 µM (COLO 205 [15]) of 98% and a growth at 0.01 µM (OVCAR-5 [16]) of 97%. It also gave a growth at 0.1 µM (SK-MEL-28) of 105%, a growth at 100 µM (RXF 393 [17]) of -98% and a growth at 0.01 µM (SF-268 [18]) of 99%. It also gave a growth at 0.01 µM (UO-31 [19]) of 90%, an LC50 (OVCAR-5 [20]) of 5.92 µM and a TGI (OVCAR-5 [20]) of 3.12 µM. For the same compound, the LC50 (OVCAR-4) was 5.25 µM, the TGI (OVCAR-4) was 2.76 µM and the TGI (NCI-H322M) was 4.85 µM. It also gave a CC50 (NCI-H322M) of 14.4 µM, a growth at 100 µM (SF-539) of -99% and a growth at 100 µM (UACC-257) of -99%. It also gave a growth at 0.01 µM (SW-620) of 96%.

With `COc1cc(-c2cc(/C=C/C(=O)c3ccc(Cl)c(Cl)c3)[nH]n2)cc(OC)c1OC` the growth at 10 µM (U-251) was 48%, the LC50 (OVCAR-8 [1]) was > 100 µM and the TGI (OVCAR-8 [1]) was 34 µM. It also gave a growth at 100 µM (SNB-19) of 12%, a growth at 10 µM (HT-29 [2]) of 53% and a growth at 100 µM (COLO 205 [3]) of -42%. It also gave a growth at 1 µM (HT-29 [4]) of 96%, a growth at 100 µM (SR) of -51% and a growth at 0.1 µM (A498) of 89%. For the same compound, the growth at 1 µM (OVCAR-8 [5]) was 88%, the growth at 0.1 µM (RXF 393 [6]) was 96% and the growth at 0.01 µM (K562) was 99%. For the same compound, the growth at 0.01 µM (MDA-MB-231) was 103%, the LC50 (Malme-3M) was > 100 µM and the TGI (Malme-3M) was > 100 µM. It also gave a growth at 1 µM (UO-31 [7]) of 81%, a growth at 0.1 µM (SF-268 [8]) of 92% and a growth at 100 µM (SK-OV-3) of -70%. For the same compound, the growth at 0.01 µM (OVCAR-8 [9]) was 94%, the LC50 (786-0) was > 100 µM and the TGI (786-0) was 68 µM. The growth at 0.1 µM (HT-29 [10]) was 98%, the growth at 10 µM (OVCAR-3) was 40% and the growth at 1 µM (MCF7 [11]) was 62%. For the same compound, the growth at 0.1 µM (MCF7 [12]) was 105%, the growth at 1 µM (HCT-116 [13]) was 80% and the LC50 (HCT-116 [14]) was > 100 µM. The TGI (HCT-116 [14]) was 21.5 µM, the growth at 1 µM (COLO 205 [15]) was 54% and the growth at 0.01 µM (OVCAR-5 [16]) was 97%. For the same compound, the growth at 0.1 µM (SK-MEL-28) was 114%, the growth at 100 µM (RXF 393 [17]) was -71% and the growth at 0.01 µM (SF-268 [18]) was 92%. For the same compound, the growth at 0.01 µM (UO-31 [19]) was 85%, the LC50 (OVCAR-5 [20]) was > 100 µM and the TGI (OVCAR-5 [20]) was > 100 µM. For the same compound, the LC50 (OVCAR-4) was > 100 µM, the TGI (OVCAR-4) was 50.9 µM and the TGI (NCI-H322M) was > 100 µM. For the same compound, the CC50 (NCI-H322M) was > 100 µM, the growth at 100 µM (SF-539) was -74% and the growth at 100 µM (UACC-257) was -10%. It also gave a growth at 0.01 µM (SW-620) of 98%.
